Data from patent US12139508B2, “Steroid derivative regulators, method for preparing the same, and uses thereof” (JIANGSU HANSOH PHARMACEUTICAL GROUP CO., LTD., priority 2018, dated 2024).
Where two headings read alike, the source gives them in different places.

Columns and labels:
[1] = tested on: PTZ-induced epilepsy model in CD-1 mice; assay: In vivo pharmacodynamic test in the PTZ-induced epilepsy model in mice; details: dose 3 mpk p.o., PTZ 120 mg/kg s.c., 30 min observation
Procedure: The PTZ-induced epilepsy model in CD-1 mice was established, and the antiepileptic effect of the compounds of Example 3, Example 60, Example 61 and Example 74 was evaluated using this model.
50 male CD-1 mice were purchased from Beijing Vital River Laboratory Animal Technology Co. Ltd. The test animals were adapted at the animal room in the third building of Shanghai ChemPartner Co., Ltd for 7 days before the test. The average body weight of the animals on the test day was 32.2±0.2 grams. Feeding environment: 5 animals/cage, room temperature 23±2° C., 12/12 hours of light and dark cycle, free acess to food and water.
4.2.1 Test Equipments • 1 ml sterile disposable syringe with needle (purchased from Zhejiang Kangdelai Medical Devices Co., Ltd.) • Pipette: Eppendorf Research Plus (100-1000 L) • Vortex mixer: Kylin-Bell Vortex 5 • Ultrasonic instrument: JL-360 ultrasonic cleaner • Balance: METTLER TOLEDO™ XS204 precision balance (note: METTLER TOLEDO™ is a kind of balance used in labs and industry) • Balance: METTLER TOLEDO™ XS6002S electronic balance (note: METTLER TOLEDO™ is a kind of balance used in labs and industry) • Plexiglass box: 25 cm length*15 cm width*15 cm height with one opaque side wall, custom made by Suzhou Fengshi Laboratory Animal Equipment Co., Ltd • 3-channel timer: Oregon/Model NO.WB-388. 4.2.2 Test Animal Grouping • 1) Vehicle/PTZ: 0.5% CMC-Na+1% Tween-80 (10 ml/kg, p.o.), administered 0.5 hr before the PTZ administration; PTZ ([…], s.c.), administered before the test; • 2) 3 mg/kg of the compounds of Examples/PTZ: the compounds of Example 3, Example 60, Example 61 and Example 74 (3 mg/kg, 10 ml/kg, p.o.), administered 0.5 hr before the PTZ administration; PTZ ([…], s.c.), administered before the test. 4.3 Experimental Procedures 4.3.1 Solvent Formulation 1) 0.5% CMC-Na+1% Tween-80 (Administration Volume: 10 mL/Kg):
4.4 Adaptation to the Environment
The mice were randomly grouped, marked and weighed; 10 mice per group. The test compound was administered orally at an administration volume of 10 mL/kg 30-60 minutes before the PTZ administration.
PTZ (120 mg/kg) was administrated subcutaneously before the test observation, and this time point was recorded as the observation start point; after the administration of PTZ, the animal was immediately placed in the observation box and observed for 30 minutes, and the followings were recorded: a) the incubation period of the first clonic seizure, b) the incubation period of the first generalized tonic seizure, c) the number of clonic seizures, d) the number of generalized tonic seizures, e) the time when the animal died.
All measurement data were expressed as Mean±SEM, and analysed with Prism 6.0 statistical software.

[2] = tested on: forced-swimming mice; assay: In vivo pharmacodynamic test in the forced swimming model in mice; details: ICR mice; for Mean (immobility, %): 100*floating time/240 s
Procedure: The antidepressant effect of the compound was evaluated by the forced swimming model in mice.
Male ICR mice (25-35 g) were adapted in the test environment for 3 days before the forced swimming test.
According to the test design, the mice were randomly grouped on the day before the test according to body weight, with 12 mice in each group. Before the test, the compounds of each example were administered intragastrically according to the Tmax thereof in the brain in mice pharmacokinetic test as follows: • 1) Model group (0.5% CMC-Na-1% Tween 80 solution, p.o., 10 mL/kg); • 2) Compounds of Example 2, Example 3, Example 5, Example 6, Example 9, Examples 59-63, Examples 71-73, Example 103, Example 135, Example 137, Example 145 and Example 146 (10 mg/kg, p.o., 10 mL/kg); Example 13 and Example 74 (5 mg/kg, p.o., 5 mL/kg).
When being administered, the compounds of each example were suspended in 0.5% CMC-Na+1% Tween 80 solution to the desired concentration.
0.5-1 hour after administration, ICR mice were placed in a forced swimming device (transparent glass drum (water depth 18 cm, water temperature 25-26° C.), one mouse per tank) and forced to swim for 6 minutes. The forced swimming device recorded the floating time of the ICR mice during the entire 6 minutes, and the data of the latter four minutes were used for data analysis. The mice were taken out immediately after the swimming test, wiped dry and put back in their original cages.
Note: The criterion for determining the immobility time is that the mouse stops struggling in water and floats, and there are only slight limb movements to keep the head floating on the water.
3.4 Data Analysis Floating time percentage=100*floating time/240 s.

[3] = Pharmacokinetic assay in Balb/c mice (plasma and brain tissue); type: in vivo; details: mouse, po, 5 mg/kg p.o., male Balb/c mice; for AUC(0-t): read-out: Area under curve AUC0-t; for AUC(0-inf): read-out: Area under curve AUC0-∞; for half-life: read-out: Half-life t1/2 (converted); for MRT: read-out: Mean residence time MRT; for Tmax: read-out: Peak time tmax; for Cmax: read-out: Plasma concentration Cmax
Method in brief: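 Compound levels in plasma and brain were measured by LC/MS/MS with an internal standard after protein precipitation with acetonitrile. Samples came from overnight-fasted male Balb/c mice given 5 mg/kg p.o., with cardiac blood drawn at 0–24 h. Pharmacokinetic parameters were then calculated.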

Row | SMILES | Incubation period of the clonic seizure, Mean ± SEM [1] | Incubation period of the generalized tonic seizure, Mean [1] | Mortality rate [1] | Number of clonic seizures, Mean [1] | Number of generalized tonic seizures, Mean [1] | Time when the animal died, Mean [1] | AUC(0-t) ([3]; brain tissue) | AUC(0-inf) ([3]; brain tissue) | half-life ([3]; brain tissue) | MRT ([3]; brain tissue) | Tmax ([3]; brain tissue) | Cmax ([3]; brain tissue) | AUC(0-t) ([3]; plasma) | AUC(0-inf) ([3]; plasma) | half-life ([3]; plasma) | MRT ([3]; plasma) | Tmax ([3]; plasma) | Cmax ([3]; plasma) | other results
1 | C[C@@H]1C[C@H](C(=O)Cn2nccn2)[C@@]2(C)CC[C@H]3[C@@H](CC[C@@H]4C[C@](C)(O)CC[C@@H]43)[C@H]12 [Example 61, 1-((3R,5R,8R,9R,10S,13S,14S,15R,17S)-3-Hydroxy-3,13,15-trimethylhexadecahydro-1H-cyclopenta[a]phenanthren-17-yl)-2-(2H-1,2,3-triazol-2-yl)ethan-1-one] | 841.4 ± 179.8 s | 1497.4 ± 124.3 s | 40% | 1.9 ± 0.4 | 0.5 ± 0.2 | 1573.1 ± 117.9 s | 657 ng·h/mL | 676 ng·h/mL | 3.95 h | 1.41 h | 0.5 h | 711 ng/mL | 588 ng·h/mL | 605 ng·h/mL | 3.27 h | 1.48 h | 0.5 h | 525 ng/mL | Mean (immobility, %) ([2]; dose 10 mpk p.o.): 35.75%; Immobility time during the latter four minutes compared with that of the model group ([2]; forced swimming): significantly different
2 | Cc1nnn(CC(=O)[C@H]2C[C@@H](C3CC3)[C@H]3[C@@H]4CC[C@@H]5C[C@](C)(O)CC[C@@H]5[C@H]4CC[C@@]32C)n1 [Example 74, 1-((3R,5R,8R,9R,10S,13S,14S,15S,17S)-15-Cyclopropyl-3-hydroxy-3,13-dimethylhexadecahydro-TH-cyclopenta[a]phenanthren-17-yl)-2-(5-methyl-2H-tetrazol-2-yl)ethan-1-one] | 635.4 ± 149.9 s | 1506.8 ± 149.8 s | 30% | 1.8 ± 0.3 | 0.3 ± 0.2 | 1618.1 ± 121.3 s | 5850 ng·h/mL | 6510 ng·h/mL | 2.28 h | 3.82 h | 1 h | 1520 ng/mL | 7160 ng·h/mL | 8600 ng·h/mL | 3.06 h | 4.59 h | 0.5 h | 2140 ng/mL | Mean (immobility, %) ([2]; dose 5 mpk p.o.): 38.00%
